Measurements published in the supplement of paper PMC12592484.

Assays:
Assay in all cases: drug sensitivity score (DSS2, normalised partial AUC of dose-response, 72 h CellTiter-Glo viability) (DSS (dimensionless)); higher = more sensitive (stronger growth inhibition / cytotoxicity); extreme values may be limits of the assay
22Rv1 = tested on: 22Rv1
How it was run: (§1)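 Low-passage primary prostate cancer-associated fibroblasts, PF179T, WPMY-1, LNCaP and 22Rv1 cells were seeded into 384-well plates carrying pre-dispensed compounds at five doses covering a 10,000-fold range. After 72 h, viability was read by CellTiter-Glo 2.0 luminescence. Responses were scaled to vehicle and positive-control wells. The drug sensitivity score (DSS2) is a partial area under the fitted logistic dose–response curve divided by the log of its upper asymptote, computed in BREEZE; higher means more sensitive.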

CAF#1 = tested on: CAF#1 (primary prostate cancer-associated fibroblasts of myCAF-like type)
How it was run: as §1

CAF#2 = tested on: CAF#2 (primary prostate cancer-associated fibroblasts of iCAF-like type)
How it was run: as §1

CAF#3 = tested on: CAF#3 (primary prostate cancer-associated fibroblasts of myCAF-like type)
How it was run: as §1

CAF#4 = tested on: CAF#4 (primary prostate cancer-associated fibroblasts of iCAF-like type)
How it was run: as §1

CAF#5 = tested on: CAF#5 (primary prostate cancer-associated fibroblasts of myCAF-like type)
How it was run: as §1

CAF#6 = tested on: CAF#6 (primary prostate cancer-associated fibroblasts of iCAF-like type)
How it was run: as §1

CAF#7 = tested on: CAF#7 (primary prostate cancer-associated fibroblasts of myCAF-like type)
How it was run: as §1

LNCAP = tested on: LNCAP
How it was run: as §1

PF179T = tested on: PF179T
How it was run: as §1

WPMY-1 = tested on: WPMY-1
How it was run: as §1

SMILES | drug sensitivity score (22Rv1) | drug sensitivity score (CAF#1) | drug sensitivity score (CAF#2) | drug sensitivity score (CAF#3) | drug sensitivity score (CAF#4) | drug sensitivity score (CAF#5) | drug sensitivity score (CAF#6) | drug sensitivity score (CAF#7) | drug sensitivity score (LNCAP) | drug sensitivity score (PF179T) | drug sensitivity score (WPMY-1)
CC[C@@H]1[C@H](F)C(=O)N[C@@H]1COc1nccc2cc(C(N)=O)c(OC)cc12 (tested concentration range 1-10000 nM) | 1.4 | 0 | 0.4 | 0 | 0 | 0 | 0 | 0.1 | 1.6 | 0 | 0
C[C@@]1(C(=O)Nc2ccc(F)nc2)CCCN1c1nc(Nc2cc(C3CC3)n[nH]2)c2cccn2n1 (tested concentration range 1-10000 nM) | 12.4 | 10.4 | 12.2 | 9 | 7.9 | 10.7 | 8.7 | 10.5 | 6.4 | 9.4 | 15.6
C[C@H]1C[C@@H](n2c(Nc3ccc(OC(F)(F)F)cc3)nc3cc(CCC(=O)O)ccc32)CC(C)(C)C1 (tested concentration range 1-10000 nM) | 0 | 0 | 0 | 0 | 0 | 0 | 0 | 0 | 0.4 | 0 | 0
Cn1cc(-c2ccc(F)c(C(F)(F)F)c2)nc1C1CCN(c2ncnc3[nH]ncc23)CC1 (tested concentration range 1-10000 nM) | 2.3 | 1.3 | 1 | 0 | 1.4 | 1.5 | 0.5 | 0.4 | 7.1 | 0 | 0
O=C1Cc2cc(C(=O)NC3C[C@H]4CC[C@@H](C3)N4S(=O)(=O)CC3CCN(CCCC(F)(F)F)CC3)c(Cl)cc2N1 (stereo not given in full) (tested concentration range 1-10000 nM) | 0 | 0 | 0 | 0 | 0 | 0 | 0 | 0 | 0 | 0.5 | 0
C[C@@H]1CN(CC(=O)Nc2ccc3c(c2)Cc2cccc(-c4cc(=O)cc(N5CCOCC5)o4)c2S3)C[C@H](C)O1 (tested concentration range 2.5-25000 nM) | 2.5 | 0 | 0.4 | 0.2 | 0 | 0 | 0.2 | 0 | 6.7 | 0.4 | 4.2
NCC(=O)Nc1ccc(-n2nc(C(F)(F)F)cc2-c2ccc3c(ccc4ccccc43)c2)cc1 (tested concentration range 2.5-25000 nM) | 0 | 0.7 | 0 | 0 | 0.8 | 0 | 0 | 0 | 1.4 | 0 | 4.4
CC/C(=C(\c1ccc(O)cc1)c1ccc(OCCN(C)C)cc1)c1ccccc1 [4-hydroxytamoxifen] (tested concentration range 1-10000 nM) | 6.4 | 3.3 | 5.3 | 1.6 | 6.2 | 3.8 | 1.8 | 1.6 | 4.7 | 3.2 | 7.2
Nc1ncnc2c1nc(Cl)n2[C@@H]1O[C@H](CO)[C@@H](O)[C@H]1O [8-chloro-adenosine] (tested concentration range 5-50000 nM) | 15 | 7.4 | 8.4 | 3.4 | 9.6 | 6.5 | 2.5 | 2 | 15.1 | 9.1 | 15.7
COc1cc2c(cc1OCCCN1CCCC1)N=C(N)C21CCC1 [A-366] (tested concentration range 2.5-25000 nM) | 6.7 | 0 | 0 | 0.7 | 0 | 0 | 1.5 | 0 | 5.6 | 0.1 | 4.5
Cc1sc2c(c1C)C(c1ccc(Cl)cc1)=N[C@@H](CC(=O)Nc1ccc(OCCOCCOCCOCCNc3cccc4c3C(=O)N(C3CCC(=O)NC3=O)C4=O)cc1)c1nnc(C)n1-2 (stereo not given in full) [ARV-825] (tested concentration range 0-300 nM) | 14.7 | 7.7 | 5.8 | 15.6 | 6.9 | 6.2 | 11.6 | 17.1 | 17.1 | 3.3 | 8.1
CN[C@@H](C)C(=O)N[C@H]1CN(C(=O)CC(C)C)CC[C@H]2CC[C@@H](C(=O)NC(c3ccccc3)c3ccccc3)N2C1=O [AT-406] (tested concentration range 1-10000 nM) | 0 | 0 | 0 | 0 | 0 | 0 | 1.6 | 0 | 0 | 0 | 0
CO[C@H]1CC[C@H](N2C(=O)CNc3ncc(-c4ccc(C(C)(C)O)nc4)nc32)CC1 [ATG-008] (tested concentration range 1-10000 nM) | 8.9 | 5.7 | 7 | 5.5 | 6.5 | 7.4 | 2.8 | 3.1 | 7.6 | 6.3 | 6.2
CC[C@H](CC#N)OC(=O)N[C@@H](C)c1cccc(NC(=O)Nc2ccc(-c3cnco3)c(OC)c2)c1 [AVN944] (tested concentration range 1-10000 nM) | 18.7 | 8.5 | 16.1 | 8.5 | 11.4 | 11.4 | 11.4 | 12.1 | 18.1 | 14.9 | 19
COc1cc(N2CCN(C)CC2)ccc1Nc1nccc(-c2cn(C)c3cnccc23)n1 [AZ191] (tested concentration range 1-10000 nM) | 6.4 | 6 | 5.7 | 7.1 | 1.9 | 4.6 | 2.3 | 2.1 | 3.5 | 2.7 | 6.8
COc1cc(OC2CCN(C)CC2)ccc1Nc1ncc2c(n1)n(C1CCCC1)c(=O)n2C [AZ 3146] (tested concentration range 1-10000 nM) | 7.5 | 1.8 | 4.3 | 3.1 | 0.8 | 0.7 | 1.6 | 2.8 | 4.6 | 2.3 | 4.8
COc1cc2ncnc(Nc3cccc(Cl)c3F)c2cc1OC(=O)N1CCN(C)C[C@H]1C [AZD3759] (tested concentration range 0.1-1000 nM) | 0 | 0 | 0 | 0.4 | 0 | 0 | 0 | 0 | 0 | 0 | 0
Cc1[nH]nc(C(F)(F)F)c1Cc1sc2c(c1C(=O)N1C[C@](C)(O)CO1)c(=O)n(C)c(=O)n2C(C)C [AZD3965] (tested concentration range 0.1-1000 nM) | 0 | 0.1 | 0.1 | 0 | 0 | 0 | 0 | 0 | 10.5 | 0 | 0
COc1cc(CCc2cc(NC(=O)c3ccc(N4CC(C)NC(C)C4)cc3)n[nH]2)cc(OC)c1 (stereo not given) [AZD4547] (tested concentration range 0.1-1000 nM) | 0 | 1.1 | 2.5 | 6.7 | 0.6 | 1.3 | 5.8 | 13.1 | 0.3 | 3.5 | 0.2
CN(C)C(=O)c1ccc(S(=O)(=O)c2ccc(NC(=O)[C@@](C)(O)C(F)(F)F)c(Cl)c2)cc1 [AZD7545] (tested concentration range 1-10000 nM) | 0.2 | 0 | 0 | 0.4 | 0 | 0 | 0 | 0 | 2.7 | 0 | 0.1
Cc1ncc(-c2ccnc(Nc3ccc(S(C)(=O)=O)cc3)n2)n1C(C)C [AZD-5438] (tested concentration range 1-10000 nM) | 7.6 | 4.1 | 3.9 | 4 | 6.8 | 2.9 | 3 | 5.6 | 10.2 | 2.5 | 8.7
C[C@@H](Nc1cc(F)cc(F)c1)c1cc(C(=O)N(C)C)cc2c(=O)cc(N3CCOCC3)oc12 [AZD-8186] (tested concentration range 0.1-1000 nM) | 1 | 2.9 | 3.4 | 4.2 | 2.8 | 2.8 | 2.2 | 3.9 | 12.7 | 6.3 | 1
CCN1CCN(Cc2ccc(Nc3ncc(F)c(-c4cc(F)c5nc(C)n(C(C)C)c5c4)n3)nc2)CC1 [Abemaciclib] (tested concentration range 0.2-2500 nM) | 11 | 0 | 5.6 | 0 | 0.2 | 0 | 0.1 | 0 | 8.7 | 0.6 | 6
CN(C)Cc1c(C(=O)NCCOc2ccc(C(=O)NO)cc2)oc2ccccc12 [Abexinostat] (tested concentration range 1-10000 nM) | 19.8 | 10 | 12.2 | 8.9 | 6.9 | 9.3 | 9.9 | 9 | 19.5 | 10.6 | 21.6
C[C@]12CC[C@H](O)CC1=CC[C@@H]1[C@@H]2CC[C@]2(C)C(c3cccnc3)=CC[C@@H]12 [Abiraterone] (tested concentration range 0.5-5000 nM) | 0 | 0 | 0 | 0 | 0 | 1.5 | 0 | 0 | 1.3 | 0 | 0
